These are literature values, as cited in US11458160B2, “Food supplements for use in the prophylaxis and treatment of migraine” (CRISTALFARMA S.R.L., priority 2017, dated 2022).

SMILES strings stand for the structures.

For data set [1] the following is noted: magnesium sulphate intravenously, same amount.
The conditions of data set [2]: weeks 9-12; 600 mg magnesium per day orally for 12 weeks; 81 patients; p<0.05.

Consider `O=S(=O)([O-])[O-].[Mg+2]` [magnesium sulphate], for which the “efficacy compared with intravenous ketorolac” value in data set [1] was “as effective as an intravenously administered NSAID such as ketorolac”.
`O=C([O-])CC(O)(CC(=O)[O-])C(=O)[O-].O=C([O-])CC(O)(CC(=O)[O-])C(=O)[O-].[Mg+2].[Mg+2].[Mg+2]` [magnesium, tri-magnesium di-citrate]: the “reduction of attack frequency compared to the baseline” value in data set [2] was 41.6%.
